Consider 5 compounds from paper PMC4648050, “Discovery of Inhibitors of Trypanosoma brucei by Phenotypic Screening of a Focused Protein Kinase Library” (Chemmedchem, 2015).

Entries after “also recorded” stand apart in the source; their conditions may differ. Where two headings read alike, the source gives them in different places.

Data set [1] can be described thus: In vivo pharmacokinetics in mice. Also on record: species or system female NMRI mice. The settings on record: for Tmax: female, NMRI; for Tmax / Cmax / half-life / AUC(0-t): mouse, whole blood, blood; for AUC(0-t): read-out: AUC(0–8) (converted). Here is the method: In vivo pharmacokinetics in mice: Compounds 1 and 28 were dosed orally by gavage as a solution at 5 mg free base per kg or 20 mg free base per kg, respectively (dose volume: 5 or 10 mL kg^−1, dose vehicle: 5 % DMSO, 40 % PEG400, 55 % distilled H2O) to female NMRI mice (n=3). Compounds 28, 38, and 56 were dosed as a bolus solution intraperitoneally at 10 (56) or 20 (28 and 38) mg free base per kg (dose volume: 10 mL kg^−1, dose vehicle: 5 % DMSO, 40 % PEG400, 55 % sterile H2O) to female NMRI mice (n=3). Female NMRI mice were chosen, as these represent the sex and strain used for the stage-1 and stage-2 HAT efficacy models. Blood samples were taken from each mouse at 5 (i.p. only), 15 and 30 min, 1, 2, 4, 6 and 8 h post-dose and mixed with two volumes of distilled H2O. After suitable sample preparation, the concentration of each compound in blood was determined by UPLC–MS/MS using a Quattro Premier XE (Waters, USA). Pharmacokinetic parameters were derived from the mean blood concentration time curve using PKsolutions software ver. 2.0 (Summit Research Services, USA).

The nature of data set [2]: Plasma protein binding (equilibrium dialysis). It counts as in vitro ADME. The conditions noted are these: mouse plasma. Here is the method: Plasma protein binding experiments: In brief, a 96-well equilibrium dialysis apparatus was used to determine the free fraction in plasma for each compound (HT Dialysis LLC, Gales Ferry, CT, USA). Membranes (12-14 kDa cutoff) were conditioned in deionised H2O for 60 min, followed by conditioning in 80:20 deionised H2O/EtOH for 20 min, and then rinsed in isotonic buffer before use. Female CD1 mouse plasma was removed from the freezer and allowed to thaw on the day of experiment. Thawed plasma was then centrifuged (Allegra […], Beckman Coulter, USA), spiked with test compound (10 μg g^-1), and 150 μL aliquots (n=6 replicate determinations) loaded into the 96-well equilibrium dialysis plate. Dialysis against isotonic buffer (150 μL) was carried out for 5 h in a temperature-controlled incubator at ∼37 °C (Barworld Scientific Ltd., UK) using an orbital microplate shaker at 125 rpm (Barworld Scientific). At the end of the incubation period, aliquots of plasma or buffer were transferred to micronic tubes (Micronic B.V., the Netherlands), and the composition in each tube was balanced with control fluid such that the volume of buffer to plasma is the same. Sample extraction was performed by the addition of 400 μL MeCN containing an appropriate internal standard. Samples were allowed to mix for 1 min and then centrifuged at 3000 rpm in 96-well blocks for 15 min (Allegra […], Beckman Coulter, USA). All samples were analysed by UPLC-MS/MS on a Quattro Premier XE Mass Spectrometer (Waters Corp.). The unbound fraction was determined as the ratio of the peak area in buffer to that in plasma.
A general note: Equilibrium dialysis compares concentrations on both sides of a semipermeable membrane.

The target of data set [3] is T1, PDK1 (Homo sapiens, UniProt O15530).
T1 sequence (O15530 1-556): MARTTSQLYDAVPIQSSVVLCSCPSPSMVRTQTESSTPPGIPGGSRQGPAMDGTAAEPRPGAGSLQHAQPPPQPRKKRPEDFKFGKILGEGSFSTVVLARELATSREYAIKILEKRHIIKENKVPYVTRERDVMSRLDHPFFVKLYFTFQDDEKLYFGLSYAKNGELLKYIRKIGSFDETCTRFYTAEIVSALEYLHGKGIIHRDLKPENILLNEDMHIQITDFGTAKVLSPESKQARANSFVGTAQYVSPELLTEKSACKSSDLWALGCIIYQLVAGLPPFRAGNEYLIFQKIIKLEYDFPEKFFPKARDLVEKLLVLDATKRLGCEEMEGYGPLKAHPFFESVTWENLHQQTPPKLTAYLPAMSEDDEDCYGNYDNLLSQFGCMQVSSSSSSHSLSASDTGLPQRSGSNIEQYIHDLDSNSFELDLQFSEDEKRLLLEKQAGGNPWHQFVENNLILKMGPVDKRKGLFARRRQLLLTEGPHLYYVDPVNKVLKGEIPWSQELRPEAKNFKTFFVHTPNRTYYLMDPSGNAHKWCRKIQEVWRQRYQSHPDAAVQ
Kind of data set: Kinase panel: PDK1. It counts as biochemical, human/mammalian. The conditions noted are these: compound at 10 μM, read-out: % of activity respect of the control. As to the method: (§1) The DDU kinase-focused compound set contains lead-like scaffolds that are designed to target protein kinases; they have kinase hinge binding motifs. Four of the 1H-imidazopyrazinones were screened against a human/mammalian kinase panel at the University of Dundee (http://www.kinase-screen.mrc.ac.uk) at a concentration of 10 μM. At the time of testing the panel contained 79 mammalian kinases selected to provide a broad coverage of the mammalian kinome (∼500 kinases in the human genome).[3] None of the compounds were active against any of the kinases at 10 μM.

Data set [4] deals with MKK1 (Homo sapiens, UniProt Q02750). The data set can be described thus: Kinase panel: MKK1. It counts as biochemical, human/mammalian. The settings on record: compound at 10 μM, read-out: % of activity respect of the control. As to the method: as §1
The test system of data set [5] is T. brucei bloodstream-stage cells. The data set can be described thus: Static–cidal (SC) assay. It counts as cell-based, Trypanosoma brucei brucei. The settings on record: for EC50: 48 h.
Setting [6] is: po, 5 mg kg^−1, female NMRI mice.
Setting [7] is: ip, 20 mg kg^−1, female NMRI mice.
Setting [8] is: po, 20 mg kg^−1, female NMRI mice.

Sequence of MKK1 (Q02750 whole entry): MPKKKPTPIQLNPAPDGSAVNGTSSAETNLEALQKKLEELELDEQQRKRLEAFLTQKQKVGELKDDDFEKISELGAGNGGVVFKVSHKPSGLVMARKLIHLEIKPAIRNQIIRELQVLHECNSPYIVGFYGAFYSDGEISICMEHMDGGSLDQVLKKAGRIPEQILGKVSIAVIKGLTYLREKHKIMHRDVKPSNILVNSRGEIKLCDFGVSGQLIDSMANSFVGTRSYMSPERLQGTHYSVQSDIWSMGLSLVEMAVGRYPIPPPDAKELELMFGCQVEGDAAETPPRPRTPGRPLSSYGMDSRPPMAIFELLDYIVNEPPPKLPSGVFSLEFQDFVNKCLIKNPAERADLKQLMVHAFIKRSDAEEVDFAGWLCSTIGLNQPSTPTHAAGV

For the compound `CC(c1ccccc1)n1c(=O)[nH]c2ncc(-c3ccc(F)cc3)nc21` (centres unmarked) [Compound 1], the Tmax in data set [1] (po, 5 mg/kg, 5 mg kg^−1, female NMRI mice) is ~2 h. In data set [1] (setting [6]), the peak level (Cmax) was 110 ng/mL, the half-life is 3 h and the AUC(0-t) is 600 ng·h/mL. In addition, the “protein binding (unbound)” value in data set [2] stood at 0.3 % unbound. For the same compound, the remaining activity at 10 µM in data set [3] worked out at 99%. Moreover, the remaining activity at 10 µM in data set [4] was determined as 106%.

On to `O=c1[nH]c2ncc(-c3ccc(F)cc3)nc2n1CC1CC1` [Compound 10], for which the remaining activity at 10 µM in data set [3] was found to be 96%; in data set [4], 97%.

`O=c1[nH]c2ncc(-c3ccc(F)cc3)nc2n1C1CCCCC1` [Compound 12, 1-Cyclohexyl-6-(4-fluorophenyl)-1H-imidazo[4,5-b]pyrazin-2(3H)-one]: the remaining activity at 10 µM was determined as 98% in data set [3] and 62% in data set [4].

With `C[C@H](c1ccccc1)n1c(=O)[nH]c2ncc(-c3ccccc3)nc21` [Compound 14, (R)-6-Phenyl-1-(1-phenylethyl)-1H-imidazo[4,5-b]pyrazin-2(3H)-one], the values for the remaining activity at 10 µM in data set [3] and in data set [4] were 91% and 87%, respectively.

`O=c1[nH]c2ncc(-c3ccccc3CO)nc2n1C1CCCCC1` [Compound 28]: in data set [1] (dosed orally, 20 mg kg^−1), the “time to reach Cmax” value worked out at 15 min. For the same compound, the Tmax in data set [1] (ip, 20 mg/kg, 20 mg kg^−1, female NMRI mice) was found to be 0.083 h; in data set [1] (po, 20 mg/kg, 20 mg kg^−1, female NMRI mice) it was 0.25 h. Besides, the Cmax in data set [1] (setting [7]) was found to be 5200 ng/mL; in data set [1] (setting [8]) it was 910 ng/mL. Also, the values for the half-life in data set [1] (setting [7]) and in data set [1] (setting [8]) were 1.2 h and 1.7 h, respectively. For the same compound, the AUC(0-t) in data set [1] (setting [7]) is 3830 ng·h/mL; in data set [1] (setting [8]), 1150 ng·h/mL. In addition, the fraction unbound at 5 h, 10 μg g^−1 in data set [2] (female, CD1, equilibrium dialysis, read-out: PPB) came to 0.072. Further, in data set [2], the “protein binding (unbound)” value came out at 7.2 % unbound. Also, in data set [2] (equilibrium dialysis), the PPB was found to be 7.2 % free. Further, the EC50 in data set [5] (Trypanosoma brucei, static cidal EC50, first site/phase, read-out: SC EC50(1)) was 0.1 µM; in data set [5] (Trypanosoma brucei, static cidal EC50, second site/phase, read-out: SC EC50(2)), > 50 µM. Also, the MCC in data set [5] (Trypanosoma brucei, static–cidal assay in triplicate, read-out: MCC (minimal cidal concentration)) was > 50 µM. Besides, the “mode of antiparasitic effect (in words)” value in data set [5] (text and figure legend, at concentrations tested) is on record as “growth-slowing or static behaviour; also recorded: growth-slowing”.

What is called Tmax is the time at which the peak concentration occurs. The Cmax is the highest concentration seen after dosing. Usually half-life stands for the time needed for the level to fall by half in the phase considered. The EC50 is the concentration giving half of the maximal effect.
